Test results as given in US4261989A, “Geldanamycin derivatives and antitumor drug” (Kaken Chemical Co. Ltd., priority 1979, dated 1981).

Key:
[1] = system: cancer cell W-2K-11; experiment: Growth inhibition of cancer cell W-2K-11 (percent inhibition of cell multiplication, Table 2); assay type: cell-based, mouse; details: 48 hours after addition of sample, W-2K-11 cells; for inhibition at 1 µg/mL: concentration 1 μg/ml
Method: Cancer cell W-2K-11 was obtained by transforming fibroblast C3H-2K clone derived from kidney of mouse by cancerogenic virus. The cancer cell W-2K-11 was cultured by the following method.
(1) Preparation of culture medium
9.4 Gram of Eagle's MEM culture media (manufactured by Nissui Seiyaku K. K.) was dissolved in 900 ml. of distilled water and the solution was sterilized under high pressure at 120° C. for 15 minutes and cooled. 100 Ml. of calf serum and 3-5 ml. of 10% aqueous solution of sodium bicarbonate were added to the solution to adjust pH to 7.1-7.2. 10 Ml. of an aqueous solution of L-glutamine (2.92 g./100 ml.) filtered by a millipore filter was added just before the use of the solution as culture medium.
(2) Preparation of transplanted cell solution
The cancer cell W-2K-11 stored in a freezer at -80° C. was melted at room temperature and treated by a centrifugal separator at 670 g. for 5 minutes. The precipitated cell was dispersed in 50 ml. of the culture medium (1). The suspension was charged into Roux flask and cultured at 37° C. The multiplication of the cells was initiated and accomplished after 3 to 4 days. The cultured mixture was decanted and 10 ml. of 0.2% trypsin solution was added and the mixture was kept at room temperature for 2 to 3 minutes and the trypsin mixture was decanted and then, 50 ml. of the culture medium (1) was added to prepare a suspension of cells.
(3) Incubation of cells and addition of sample
1.8 Ml. of the suspension of cells (2) was charged into each Petri dish and incubated in a carbon dioxide gas incubator (5% of CO2; 95% of air) at 37° C. Twenty four hours after the initiation of the incubation, 0.2 ml. of each ethanol solution of each sample was added, and the incubation was continued. Forty eight hours after the addition of the sample, numbers of survival cells were counted under a microscopic observation and each percent inhibition of cell multiplication was calculated. [formula]

[2] = Acute toxicity, LD50 to mouse by intraperitoneal injection (Table 3); details: in vivo, ip
Method: LD50 of each sample to mouse was measured by intraperitoneal injection of each sample.

[3] = Mus musculus, read-out: Percent inhibition (%)
[4] = Mus musculus, concentration 10 μg/ml, read-out: Percent inhibition (%)

SMILES | inhibition at 1 µg/mL [1, 3] | inhibition at 10 µg/mL [1, 4] | LD50 [2] | further results
COC1=C2CC(C)CC(OC)C(O)C(C)C=C(C)C(OC(N)=O)C(OC)C=CC=C(C)C(=O)NC(=C(N(C)C)C1=O)C2=O (stereo not drawn) [Example 36, 19-dimethylamino-Geldanamycin] | 70% | 84% | > 240 mg/kg | 
COC1=C2CC(C)CC(OC)C(O)C(C)C3OC3(C)C(OC(N)=O)C(OC)C=CC=C(C)C(=O)NC(=CC1=O)C2=O (stereo not drawn) [Example 45, 8,9-epoxy-Geldanamycin] | 95% | 100% | 240 mg/kg | 
CCNC1=C2CC(C)CC(OC)C(O)C(C)/C=C(\C)C(OC(N)=O)C(OC)/C=C\C=C(/C)C(=O)NC(=CC1=O)C2=O (stereo not drawn) [Example 3] | 90% |  | 120 mg/kg | 
COC1=C2CC(C)CC(OC)C(O)C(C)C=C(C)C(OC(N)=O)C(OC)C=CC=C(C)C(=O)N(C)C(=CC1=O)C2=O (stereo not drawn) [Example 41, 21-N-methyl-Geldanamycin] |  | 82% | 120 mg/kg | 
COC1C=CC=C(C)C(=O)NC2=CC(=O)C(NCC34CC5CC(CC(C5)C3)C4)=C(CC(C)CC(OC)C(O)C(C)C=C(C)C1OC(N)=O)C2=O (stereo not drawn) [Example 17] |  |  |  | Percent inhibition (%) ([1]; concentration 10 μg/ml): 98%
COC1=C2C[C@@H](C)C[C@H](OC)[C@H](O)[C@@H](C)/C=C(\C)[C@H](OC(N)=O)[C@@H](OC)/C=C\C=C(/C)C(=O)NC(=CC1=O)C2=O [Geldanamycin] |  |  | 15 mg/kg | inhibition at 1.2 µg/mL ([1]; Mus musculus, concentration 1.2 μg/ml): 61%
COC1C=CC=C(C)C(=O)NC2=CC(=O)C(NCCN3CCCC3)=C(CC(C)CC(OC)C(O)C(C)C=C(C)C1OC(N)=O)C2=O (stereo not drawn) [Example 32] |  |  |  | inhibition at 5 µg/mL ([1]; Mus musculus, concentration 5 μg/ml, read-out: Percent inhibition (%)): 84%
COC1/C=C\C=C(/C)C(=O)NC2=CC(=O)C(NCCO)=C(CC(C)CC(OC)C(O)C(C)/C=C(\C)C1OC(N)=O)C2=O (stereo not drawn) [Example 18] | 98% |  |  | 
